ChEMBL document CHEMBL3228036, “A new chemical series active against African trypanosomes: benzyltriphenylphosphonium salts” (J Med Chem, 1979)
Activity calls are given as the source filed them. No cut-off for these calls is given here.

tested on: Trypanosoma brucei rhodesiense; experiment: […] activity against Trypanosoma brucei rhodesiense Wellcome CT infected in ICR/HA mouse assessed as curated mouse at 424 mg/kg, sc treated within 2 hrs of parasite infection measured up to 30 days; format: functional, organism-based; parameters: dose 424 mg/kg; conditions: not given

Row | SMILES | Activity
1 | Clc1ccc(OC[P+](c2ccccc2)(c2ccccc2)c2ccccc2)cc1.[Cl-] | inactive
2 | CC(C)(C)c1cc(C[P+](c2ccccc2)(c2ccccc2)c2ccccc2)cc(C(C)(C)C)c1O.[Br-] | inactive
3 | Cc1ccc([P+](Cc2ccccc2)(c2ccccc2)c2ccccc2)cc1.[Cl-] | inactive
4 | Clc1ccccc1C[P+](c1ccccc1)(c1ccccc1)c1ccccc1.[Cl-] | inactive
5 | Cc1ccc(C[P+](c2ccccc2)(c2ccccc2)c2ccccc2)cc1 | inactive

tested on: Trypanosoma brucei rhodesiense; experiment: […] activity against Trypanosoma brucei rhodesiense Wellcome CT infected in ICR/HA mouse assessed as curated mouse at 424 mg/kg, po treated within 2 hrs of parasite infection measured up to 30 days; format: functional, organism-based; parameters: dose 424 mg/kg; conditions: not given

Row | SMILES | Activity
6 | Clc1ccc(OC[P+](c2ccccc2)(c2ccccc2)c2ccccc2)cc1.[Cl-] | inactive
7 | CC(C)(C)c1cc(C[P+](c2ccccc2)(c2ccccc2)c2ccccc2)cc(C(C)(C)C)c1O.[Br-] | inactive
8 | Cc1ccc([P+](Cc2ccccc2)(c2ccccc2)c2ccccc2)cc1.[Cl-] | inactive
9 | Clc1ccccc1C[P+](c1ccccc1)(c1ccccc1)c1ccccc1.[Cl-] | inactive
10 | Cc1ccc(C[P+](c2ccccc2)(c2ccccc2)c2ccccc2)cc1 | inactive

tested on: Mus musculus; experiment: Toxicity in Trypanosoma brucei rhodesiense Wellcome CT infected ICR/HA mouse assessed as mortality at 424 mg/kg, po treated within 2 hrs of parasite infection measured up to 30 days; format: organism-based; parameters: dose 424 mg/kg, route oral; conditions: in vivo

Row | SMILES | Activity
11 | Cc1ccc([P+](Cc2ccccc2)(c2ccccc2)c2ccccc2)cc1.[Cl-] | Toxic
12 | Clc1ccccc1C[P+](c1ccccc1)(c1ccccc1)c1ccccc1.[Cl-] | Toxic

tested on: Trypanosoma brucei rhodesiense; experiment: […] activity against Trypanosoma brucei rhodesiense Wellcome CT infected in ICR/HA mouse assessed as curated mouse at 212 mg/kg, sc treated within 2 hrs of parasite infection measured up to 30 days; format: functional, organism-based; parameters: dose 212 mg/kg; conditions: not given

Row | SMILES | Activity
13 | CC(C)(C)c1cc(C[P+](c2ccccc2)(c2ccccc2)c2ccccc2)cc(C(C)(C)C)c1O.[Br-] | inactive
14 | Cc1ccc([P+](Cc2ccccc2)(c2ccccc2)c2ccccc2)cc1.[Cl-] | inactive
15 | Clc1ccccc1C[P+](c1ccccc1)(c1ccccc1)c1ccccc1.[Cl-] | inactive
16 | Cc1ccc(C[P+](c2ccccc2)(c2ccccc2)c2ccccc2)cc1 | inactive

tested on: Trypanosoma brucei rhodesiense; experiment: […] activity against Trypanosoma brucei rhodesiense Wellcome CT infected in ICR/HA mouse assessed as curated mouse at 212 mg/kg, po treated within 2 hrs of parasite infection measured up to 30 days; format: functional, organism-based; parameters: dose 212 mg/kg; conditions: not given

Row | SMILES | Activity
17 | CC(C)(C)c1cc(C[P+](c2ccccc2)(c2ccccc2)c2ccccc2)cc(C(C)(C)C)c1O.[Br-] | inactive
18 | Cc1ccc([P+](Cc2ccccc2)(c2ccccc2)c2ccccc2)cc1.[Cl-] | inactive
19 | Clc1ccccc1C[P+](c1ccccc1)(c1ccccc1)c1ccccc1.[Cl-] | inactive
20 | Cc1ccc(C[P+](c2ccccc2)(c2ccccc2)c2ccccc2)cc1 | inactive

tested on: Mus musculus; experiment: Toxicity in Trypanosoma brucei rhodesiense Wellcome CT infected ICR/HA mouse assessed as mortality at 212 mg/kg, po treated within 2 hrs of parasite infection measured up to 30 days; format: organism-based; parameters: dose 212 mg/kg, route oral; conditions: in vivo

Row | SMILES | Activity
21 | CC(C)(C)c1cc(C[P+](c2ccccc2)(c2ccccc2)c2ccccc2)cc(C(C)(C)C)c1O.[Br-] | Toxic
22 | Cc1ccc([P+](Cc2ccccc2)(c2ccccc2)c2ccccc2)cc1.[Cl-] | Toxic
23 | Clc1ccccc1C[P+](c1ccccc1)(c1ccccc1)c1ccccc1.[Cl-] | Toxic

tested on: Trypanosoma brucei rhodesiense; experiment: […] activity against Trypanosoma brucei rhodesiense Wellcome CT infected in ICR/HA mouse assessed as curated mouse at 106 mg/kg, sc treated within 2 hrs of parasite infection measured up to 30 days; format: functional, organism-based; parameters: dose 106 mg/kg; conditions: not given

Row | SMILES | Activity
24 | CC(C)(C)c1cc(C[P+](c2ccccc2)(c2ccccc2)c2ccccc2)cc(C(C)(C)C)c1O.[Br-] | inactive
25 | Cc1ccc(C[P+](c2ccccc2)(c2ccccc2)c2ccccc2)cc1 | inactive

tested on: Trypanosoma brucei rhodesiense; experiment: […] activity against Trypanosoma brucei rhodesiense Wellcome CT infected in ICR/HA mouse assessed as curated mouse at 106 mg/kg, po treated within 2 hrs of parasite infection measured up to 30 days; format: functional, organism-based; parameters: dose 106 mg/kg; conditions: not given

Row | SMILES | Activity
26 | CC(C)(C)c1cc(C[P+](c2ccccc2)(c2ccccc2)c2ccccc2)cc(C(C)(C)C)c1O.[Br-] | inactive
27 | Cc1ccc([P+](Cc2ccccc2)(c2ccccc2)c2ccccc2)cc1.[Cl-] | inactive
28 | Clc1ccccc1C[P+](c1ccccc1)(c1ccccc1)c1ccccc1.[Cl-] | inactive
29 | Cc1ccc(C[P+](c2ccccc2)(c2ccccc2)c2ccccc2)cc1 | inactive

tested on: Trypanosoma brucei rhodesiense; experiment: […] activity against Trypanosoma brucei rhodesiense Wellcome CT infected in ICR/HA mouse assessed as curated mouse at 53 mg/kg, sc treated within 2 hrs of parasite infection measured up to 30 days; format: functional, organism-based; parameters: dose 53 mg/kg; conditions: not given

Row | SMILES | Activity
30 | CC(C)(C)c1cc(C[P+](c2ccccc2)(c2ccccc2)c2ccccc2)cc(C(C)(C)C)c1O.[Br-] | inactive
31 | Cc1ccc(C[P+](c2ccccc2)(c2ccccc2)c2ccccc2)cc1 | inactive

tested on: Trypanosoma brucei rhodesiense; experiment: […] activity against Trypanosoma brucei rhodesiense Wellcome CT infected in ICR/HA mouse assessed as curated mouse at 53 mg/kg, po treated within 2 hrs of parasite infection measured up to 30 days; format: functional, organism-based; parameters: dose 53 mg/kg; conditions: not given

Row | SMILES | Activity
32 | CC(C)(C)c1cc(C[P+](c2ccccc2)(c2ccccc2)c2ccccc2)cc(C(C)(C)C)c1O.[Br-] | inactive
33 | Cc1ccc([P+](Cc2ccccc2)(c2ccccc2)c2ccccc2)cc1.[Cl-] | inactive
34 | Clc1ccccc1C[P+](c1ccccc1)(c1ccccc1)c1ccccc1.[Cl-] | inactive
35 | Cc1ccc(C[P+](c2ccccc2)(c2ccccc2)c2ccccc2)cc1 | inactive

tested on: Trypanosoma brucei rhodesiense; experiment: […] activity against Trypanosoma brucei rhodesiense Wellcome CT infected in ICR/HA mouse assessed as curated mouse at 26.5 mg/kg, sc treated within 2 hrs of parasite infection measured up to 30 days; format: functional; conditions: not given

Row | SMILES | Activity
36 | Clc1ccc(OC[P+](c2ccccc2)(c2ccccc2)c2ccccc2)cc1.[Cl-] | inactive
37 | CC(C)(C)c1cc(C[P+](c2ccccc2)(c2ccccc2)c2ccccc2)cc(C(C)(C)C)c1O.[Br-] | inactive
38 | Cc1ccc([P+](Cc2ccccc2)(c2ccccc2)c2ccccc2)cc1.[Cl-] | inactive
39 | Cc1ccc(C[P+](c2ccccc2)(c2ccccc2)c2ccccc2)cc1 | inactive

tested on: Trypanosoma brucei rhodesiense; experiment: […] activity against Trypanosoma brucei rhodesiense Wellcome CT infected in ICR/HA mouse assessed as curated mouse at 26.5 mg/kg, po treated within 2 hrs of parasite infection measured up to 30 days; format: functional, organism-based; parameters: dose 26.5 mg/kg; conditions: not given

Row | SMILES | Activity
40 | CC(C)(C)c1cc(C[P+](c2ccccc2)(c2ccccc2)c2ccccc2)cc(C(C)(C)C)c1O.[Br-] | inactive
41 | Cc1ccc([P+](Cc2ccccc2)(c2ccccc2)c2ccccc2)cc1.[Cl-] | inactive
42 | Clc1ccccc1C[P+](c1ccccc1)(c1ccccc1)c1ccccc1.[Cl-] | inactive
43 | Cc1ccc(C[P+](c2ccccc2)(c2ccccc2)c2ccccc2)cc1 | inactive

tested on: Trypanosoma brucei rhodesiense; experiment: […] activity against Trypanosoma brucei rhodesiense Wellcome CT infected in ICR/HA mouse assessed as curated mouse at 13.3 mg/kg, sc treated within 2 hrs of parasite infection measured up to 30 days; format: functional, organism-based; parameters: dose 13.3 mg/kg; conditions: not given

Row | SMILES | Activity
44 | Clc1ccc(OC[P+](c2ccccc2)(c2ccccc2)c2ccccc2)cc1.[Cl-] | inactive
45 | CC(C)(C)c1cc(C[P+](c2ccccc2)(c2ccccc2)c2ccccc2)cc(C(C)(C)C)c1O.[Br-] | inactive
46 | Cc1ccc([P+](Cc2ccccc2)(c2ccccc2)c2ccccc2)cc1.[Cl-] | inactive
47 | Clc1ccccc1C[P+](c1ccccc1)(c1ccccc1)c1ccccc1.[Cl-] | inactive
48 | Cc1ccc(C[P+](c2ccccc2)(c2ccccc2)c2ccccc2)cc1 | inactive

tested on: Trypanosoma brucei rhodesiense; experiment: […] activity against Trypanosoma brucei rhodesiense Wellcome CT infected in ICR/HA mouse assessed as curated mouse at 13.3 mg/kg, po treated within 2 hrs of parasite infection measured up to 30 days; format: functional, organism-based; parameters: dose 13.3 mg/kg; conditions: not given

Row | SMILES | Activity
49 | CC(C)(C)c1cc(C[P+](c2ccccc2)(c2ccccc2)c2ccccc2)cc(C(C)(C)C)c1O.[Br-] | inactive
50 | Cc1ccc([P+](Cc2ccccc2)(c2ccccc2)c2ccccc2)cc1.[Cl-] | inactive
51 | Clc1ccccc1C[P+](c1ccccc1)(c1ccccc1)c1ccccc1.[Cl-] | inactive
52 | Cc1ccc(C[P+](c2ccccc2)(c2ccccc2)c2ccccc2)cc1 | inactive

tested on: Trypanosoma brucei rhodesiense; experiment: […] activity against Trypanosoma brucei rhodesiense Wellcome CT infected in ICR/HA mouse assessed as curated mouse at 6.5 mg/kg, sc treated within 2 hrs of parasite infection measured up to 30 days; format: functional, organism-based; parameters: dose 6.5 mg/kg; conditions: not given

Row | SMILES | Activity
53 | Cc1ccc([P+](Cc2ccccc2)(c2ccccc2)c2ccccc2)cc1.[Cl-] | inactive
54 | Cc1ccc(C[P+](c2ccccc2)(c2ccccc2)c2ccccc2)cc1 | inactive

tested on: Mus musculus; experiment: Toxicity in Trypanosoma brucei rhodesiense Wellcome CT infected ICR/HA mouse assessed as mortality at 424 mg/kg, sc treated within 2 hrs of parasite infection measured up to 30 days; format: organism-based; parameters: dose 424 mg/kg, route subcutaneous; conditions: in vivo

Row | SMILES | Activity
55 | Clc1ccc(OC[P+](c2ccccc2)(c2ccccc2)c2ccccc2)cc1.[Cl-] | Toxic
56 | Cc1ccc([P+](Cc2ccccc2)(c2ccccc2)c2ccccc2)cc1.[Cl-] | Toxic
57 | Clc1ccccc1C[P+](c1ccccc1)(c1ccccc1)c1ccccc1.[Cl-] | Toxic

tested on: Mus musculus; experiment: Toxicity in Trypanosoma brucei rhodesiense Wellcome CT infected ICR/HA mouse assessed as mortality at 212 mg/kg, sc treated within 2 hrs of parasite infection measured up to 30 days; format: organism-based; parameters: dose 212 mg/kg, route subcutaneous; conditions: in vivo

Row | SMILES | Activity
58 | Cc1ccc([P+](Cc2ccccc2)(c2ccccc2)c2ccccc2)cc1.[Cl-] | Toxic
59 | Clc1ccccc1C[P+](c1ccccc1)(c1ccccc1)c1ccccc1.[Cl-] | Toxic
